Assays:
[1] = system: NCI-H226 squamous carcinoma; assay: Induced-tumor NOD/SCID mouse model, comparison to cisplatin (Example 8); assay type: in vivo, NOD/SCID mice
Experimental: A standard induced-tumor NOD/SCID mouse model was used to perform this investigation, with the mouse model being based on protocols for human xenograft systems developed at the National Cancer Institute. H226 cell cancer tumors were induced in NOD/SCID mice; tumors at sizes approximately 100 mm^3 were treated with 30 mg/kg MT103 or a control containing only vehicle (2.5% DMSO in distilled water) administered in intraperitoneal injections every other day for two weeks.
This experiment provides in vivo test data showing that the MT103 family of compounds are effective anti-cancer agents. […] MT103 was tested at three dose levels (60, 120, and 240 mg/kg). Experiments were performed as described in Example 7, NOD/SCID mice, (NOD.CB17-Prkdcscid/J) except that tumors were treated with: one of three doses of MT103 or Cisplatin or sham for 3 intraperitoneal injections (one every 4 days) in a 2-cycle 56-day test that was extended to another cycle to 86 days, as reflected in FIG. 5. Tumor volumes were measured every other day.

[2] = system: 786-0; assay: NCI 60 cell-line test; assay type: cell-based, human; conditions: 786-0 (Renal Cancer)
Procedure, shortened: (§1)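 Growth inhibition over a 48 h continuous exposure was estimated by SRB protein assay in RPMI 1640 with 5% fetal bovine serum. A time-zero fixed plate allowed the net growth inhibition and cell-kill parameters to be calculated.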

[3] = system: DU-145; assay: NCI 60 cell-line test; assay type: cell-based, human; conditions: DU-145 (Prostate Cancer)
Procedure, shortened: as §1

[4] = system: KM12; assay: NCI 60 cell-line test; assay type: cell-based, human; conditions: KM12 (Colon Cancer)
Procedure, shortened: as §1

[5] = system: RPMI-8226; assay: NCI 60 cell-line test; assay type: cell-based, human; conditions: RPMI-8226 (Leukemia)
Procedure, shortened: as §1

[6] = system: SF-295; assay: NCI 60 cell-line test; assay type: cell-based, human; conditions: SF-295 (CNS Cancer)
Procedure, shortened: as §1

[7] = system: SK-OV-3; assay: NCI 60 cell-line test; assay type: cell-based, human; conditions: SK-OV-3 (Ovarian Cancer)
Procedure, shortened: as §1

[8] = system: SR; assay: NCI 60 cell-line test; assay type: cell-based, human; conditions: SR (Leukemia)
Procedure, shortened: as §1

[9] = read-out: LC50 (the source's name)

CC1(C)C2CC[C@@]1(CS(=O)(=O)N(C1CCCCC1)C1CCCCC1)C(O)C2 (some centres unmarked) [MT103]
blood counts and electrolytes ([1]; 120 mg/kg versus control): no differences in blood counts and electrolytes | organ appearance ([1]; 120 mg/kg versus control): no observable differences in organ appearance | improvement compared to cisplatin ([1]; 120 mg/kg, among the range of doses tested): most improvement compared to cisplatin | mean tumor growth ([1]; 60, 120, 240 mg/kg, 3 intraperitoneal injections (one every 4 days) per cycle, p=0.046, FIG. 5): mean tumor growth slowed | effect in comparison to cisplatin ([1]; depending upon the dosages administered (60, 120, 240 mg/kg)): comparable or superior effect | TGI [2]: >1.00E−04 | IC50 ([2]; read-out: G150): 46.3 µM | CC50 [2, 9]: > 100 µM | TGI [3]: >1.00E−04 | IC50 ([3]; read-out: G150): 30.5 µM | CC50 [3, 9]: > 100 µM | TGI [4]: 9.73E−05 | IC50 ([4]; read-out: G150): 28.4 µM | CC50 [4, 9]: > 100 µM | TGI [5]: 3.68E−05 | IC50 ([5]; read-out: G150): 11.8 µM | CC50 [5, 9]: > 100 µM | TGI [6]: >1.00E−04 | IC50 ([6]; read-out: G150): 22.6 µM | CC50 [6, 9]: > 100 µM | TGI [7]: >1.00E−04 | IC50 ([7]; read-out: G150): 83.2 µM | CC50 [7, 9]: > 100 µM | TGI [8]: >1.00E−04 | IC50 ([8]; read-out: G150): 23.8 µM | CC50 [8, 9]: > 100 µM

Reference: patent US20040266732A1, “Therapeutic agents, methods, and treatments” (priority 2002, published 2004)
